≈ marks a conversion by molar mass, not a printed value.
Tested on: HEp-2
Assay: Cytotoxicity against human Hep2 cells by MTT method
Format: functional, cell-based

SMILES | IC50
COC1(c2cc(O)ccc2O)C=C(CC/C=C(\C)CCC=C(C)C)C(=O)O1 (configuration not stated) [FORNICIN B] | 15 µg/mL (≈ 40.3 µM)
CC(C)=CCC/C(C)=C/CCC(CC(=O)c1cc(O)ccc1O)C(=O)O (configuration not stated) [FORNICIN C] | 23 µg/mL (≈ 63.8 µM)
